Some results are limits rather than exact numbers.

Data set [1] concerns DU145 (human prostate cancer cells). The data set is described as follows: Antiproliferative activity, WST1 colorimetric test, DU145. The class given is cell-based. The settings on record: DU-145, treated 96 hours, up to 10 μM, read-out: IC50 on the cell proliferation of the DU-145 lines. As to the method: (§1) iii) Characterization of the Antiproliferative Activity:
(§2) By way of example, the effect of a treatment on two human cell lines Mia-Paca2 and DU145 by the compounds of the examples described previously will be studied. The cell lines DU145 (human prostate cancer cells) and Mia-PaCa2 (human pancreas cancer cells) were acquired from the American Tissue Culture Collection (Rockville, Md., USA). The cells placed in 80 μl of Dulbecco's Modified Eagle's medium (Gibco-Brl, Cergy-Pontoise, France) completed with 10% foetal calf serum inactivated by heating (Gibco-Brl, Cergy-Pontoise, France), 50,000 units/l of penicillin and 50 mg/l of streptomycin (Gibco-Brl, 10378-057, Cergy-Pontoise, France), and 2 mM of glutamine (Gibco-Brl, Cergy-Pontoise, France) were seeded on a 96-well plate on day 0. The cells were treated on day 1 for 96 hours with increasing concentrations of each of the compounds to be tested up to 10 μM. At the end of this period, quantification of cell proliferation is evaluated by a colorimetric test based on the cleavage of the tetrazolium salt WST1 by the mitochondrial dehydrogenases in viable cells leading to the formation of formazan (Boehringer Mannheim, Meylan, France). These tests are carried out in duplicate with 8 determinations per concentration tested. For each compound to be tested, the values included in the linear part of the sigmoid were retained for a linear regression analysis and used to estimate the inhibitory concentration IC50. The products are solubilized in dimethylsulphoxide (DMSO) at 10^−2 M and finally used in culture with 0.1% DMSO.
For orientation: Tetrazolium dyes change colour on reduction, which living cells bring about.

Data set [2] has as its system Mia-Paca2 (human pancreas cancer cells). The data set is described as follows: Antiproliferative activity, WST1 colorimetric test, Mia-PaCa2. It counts as cell-based. The settings on record: MIA PaCa-2, Mia-Paca2, treated 96 hours, up to 10 μM, read-out: IC50 on the cell proliferation of the Mia-Paca2 lines. As to the method: as §1, §2

Usually melting point stands for the temperature of the solid-liquid transition. The molecule `CCc1ccc(-c2nc3c(o2)C(=O)C=C(NCCN(C)C)C3=O)cc1` [Example 22, 5-{[2-(dimethylamino)ethyl]amino}-2-(4-ethylphenyl)-1,3-benzoxazole4,7-dione] returned a melting point of 169 to 170 °C. Also, the IC50 in data set [1] is at most 10 µM. Also, the IC50 in data set [2] was at most 10 µM.
As for `O=C1C(NCCN2CCCC2)=CC(=O)c2oc(-c3cccc(Br)c3)nc21` [Example 24, 2-(3-bromophenyl)-5-[(2-pyrrolidin-1-ylethyl)amino]1,3-benzoxazole4,7-dione], the melting point lay in the range of 169 to 170 °C. Also, the IC50 in data set [1] is at most 10 µM. In data set [2], the IC50 was at most 10 µM.
`O=C1C=C(NCCN2CCCC2)C(=O)c2oc(-c3cc(F)cc(F)c3)nc21` [Example 51, 2-(3,5-difluorophenyl)-6-[(2-pyrrolidin-1-ylethyl)amino]-1,3-benzoxazole-4,7-dione] yielded a melting point of 163 to 164 °C. Also, the IC50 in data set [1] is at most 10 µM. Besides, the IC50 in data set [2] is at most 10 µM.
In turn, `CN(C)CCNC1=CC(=O)c2nc(-c3cccc(Br)c3)oc2C1=O` [Example 29, 2-(3-bromophenyl)-6-{[2-(dimethylamino)ethyl]amino}-1,3-benzoxazole4,7-dione] came in with a melting point of 174 to 175 °C. In addition, the IC50 in data set [1] is at most 10 µM. The IC50 in data set [2] was at most 10 µM.
The molecule `O=C1C=C(NCCN2CCCC2)C(=O)c2oc(-c3cccc(Br)c3)nc21` [Example 46, 2-(3-bromophenyl)-6-[(2-pyrrolidin-1-ylethyl)amino]-1,3-benzoxazole-4,7-dione] registered a melting point of 163 to 164 °C. Moreover, the IC50 in data set [1] is at most 10 µM. For the same molecule, in data set [2], the IC50 is at most 10 µM.
On to `CN(C)CCNC1=CC(=O)c2oc(-c3cccc(Br)c3)nc2C1=O` [Example 17, 2-(3-bromophenyl)-5-{[2-(dimethylamino)ethyl]amino}-1,3-benzoxazole-4,7-dione], for which the melting point is 187 to 188 °C. Further, in data set [1], the IC50 was at most 10 µM. Further, the IC50 in data set [2] is at most 10 µM.
The molecule `O=C1C(NCCN2CCCC2)=CC(=O)c2oc(-c3cc(F)c(F)c(F)c3)nc21` [Example 26, 5-[(2-pyrrolidin-1-ylethyl)amino]-2-(3,4,5-trifluorophenyl)-1,3-benzoxazole-4,7-dione] had a melting point of 193 to 194 °C. The IC50 in data set [1] is at most 10 µM. In addition, in data set [2], the IC50 was at most 10 µM.
`COc1ccc(-c2nc3c(o2)C(=O)C(NCCN2CCCC2)=CC3=O)cc1OC` [Example 57, 2-(3,4-dimethoxyphenyl)-6-[(2-pyrrolidin-1-ylethyl)amino]-1,3-benzoxazole-4,7-dione] had a melting point of 198.5 to 199.5 °C. In addition, the IC50 in data set [1] is at most 10 µM. Also, in data set [2], the IC50 was at most 10 µM.
Consider `CN(C)CCNC1=CC(=O)c2oc(Cc3ccccc3)nc2C1=O` [Example 23, 2-benzyl-5-{[2-(dimethylamino)ethyl]amino}-1,3-benzoxazole-4,7-dione], for which the melting point was 135 to 136 °C. In addition, the IC50 in data set [1] was at most 10 µM. Besides, the IC50 in data set [2] was at most 10 µM.
With `CN(C)CCNC1=CC(=O)c2nc(-c3cccc4ccccc34)sc2C1=O` [Example 9, 6-{[2-(dimethylamino)ethyl]amino}-2-(1-naphthyl)-1,3-benzothiazole-4,7-dione], the melting point fell in the range of 172 to 173 °C. The IC50 in data set [1] is at most 10 µM. In addition, in data set [2], the IC50 is at most 10 µM.
Take `CN(C)CCNC1=CC(=O)c2nc(-c3ccc(F)cc3)oc2C1=O` [Example 33, 6-{[2-(dimethylamino)ethyl]amino}-2-(4-fluorophenyl)-1,3-benzoxazole4,7-dione]: the melting point fell in the range of 169 to 170 °C. The IC50 in data set [1] is at most 10 µM. In addition, in data set [2], the IC50 was at most 10 µM.
`CN(C)CCNC1=CC(=O)c2nc(Cc3cccc4ccccc34)oc2C1=O` [Example 44, 6-{[2-(dimethylamino)ethyl]amino}-2-(1-naphthylmethyl)-1,3-benzoxazole-4,7-dione] showed a melting point of 153 to 154 °C. For the same molecule, the IC50 in data set [1] is at most 10 µM. Moreover, the IC50 in data set [2] was at most 10 µM.
Molecule `Cc1cc(-c2nc3c(o2)C(=O)C(NCCN(C)C)=CC3=O)ccc1Br` [Example 37, 2-(4-bromo-3-methylphenyl)-6-{[2-(dimethylamino)ethyl]amino}-1,3-benzoxazole-4,7-dione] gave a melting point of 165 to 166 °C. The IC50 in data set [1] is at most 10 µM. Moreover, the IC50 in data set [2] is at most 10 µM.
Molecule `CN(C)CCNC1=CC(=O)c2nc(Cc3c(Cl)cccc3Cl)oc2C1=O` [Example 42, 2-(2,6-dichlorobenzyl)-6-{[2-(dimethylamino)ethyl]amino}-1,3-benzoxazole4,7-dione] gave a melting point of 172 to 173 °C. Besides, the IC50 in data set [1] is at most 10 µM. In data set [2], the IC50 was at most 10 µM.
`CN(C)CCNC1=CC(=O)c2oc(-c3ccc(F)cc3)nc2C1=O` [Example 18, 5-{[2-(dimethylamino)ethyl]amino}-2-(4-fluorophenyl)-1,3-benzoxazole-4,7-dione]: the melting point was in the range of 181 to 182 °C. Besides, the IC50 in data set [1] was at most 10 µM. For the same molecule, in data set [2], the IC50 was at most 10 µM.
As to `O=C1C=C(NCCN2CCCC2)C(=O)c2oc(-c3ccc(F)cc3)nc21` [Example 50, 2-(4-fluorophenyl)-6-[(2-pyrrolidin-1-ylethyl)amino]-1,3-benzoxazole-4,7-dione], the melting point is 170 to 171 °C. Further, the IC50 in data set [1] is at most 10 µM. Besides, in data set [2], the IC50 was at most 10 µM.
For the molecule `CN(C)CCNC1=CC(=O)c2oc(-c3cccc(F)c3F)nc2C1=O` [Example 20, 2-(2,3-difluorophenyl)-5-{[2-(dimethylamino)ethyl]amino}-1,3-benzoxazole-4,7-dione], the melting point was in the range of 178 to 179 °C. In data set [1], the IC50 was at most 10 µM. In addition, the IC50 in data set [2] is at most 10 µM.
Turning to `O=C1C=C(NCCN2CCCC2)C(=O)c2oc(-c3ccc(Br)cc3Cl)nc21` [Example 55, 2-(4-bromo-2-chlorophenyl)-6-[(2-pyrrolidin-1-ylethyl)amino]-1,3-benzoxazole-4,7-dione], the melting point fell in the range of 153 to 154 °C. Further, in data set [1], the IC50 was at most 10 µM. Besides, the IC50 in data set [2] was at most 10 µM.
`CN(C)CCNC1=CC(=O)c2nc(-c3cccc(F)c3F)oc2C1=O` [Example 35, 2-(2,3-difluorophenyl)-6-{[2-(dimethylamino)ethyl]amino}-1,3-benzoxazole-4,7-dione] yielded a melting point of 178 to 179 °C. Besides, in data set [1], the IC50 was at most 10 µM. For the same molecule, in data set [2], the IC50 was at most 10 µM.
The molecule `CN(C)CCNC1=CC(=O)c2nc(-c3ccc(F)cc3)sc2C1=O` [Example 8, 6-{[2-(dimethylamino)ethyl]amino}-2-(4-fluorophenyl)-1,3-benzothiazole4,7-dione] gave a melting point of 246 to 247 °C. In data set [1], the IC50 was at most 10 µM. Moreover, in data set [2], the IC50 is at most 10 µM.
Molecule `O=C1C=C(NCCN2CCCC2)C(=O)c2oc(-c3ccc(Br)cc3)nc21` [Example 48, 2-(4-bromophenyl)-6-[(2-pyrrolidin-1-ylethyl)amino]-1,3-benzoxazole-4,7-dione] returned a melting point of 165 to 166 °C. For the same molecule, the IC50 in data set [1] is at most 10 µM. Also, the IC50 in data set [2] was at most 10 µM.
In the case of `O=C1C(NCCN2CCCC2)=CC(=O)c2oc(-c3cc(F)cc(F)c3)nc21` [Example 25, 2-(3,5-difluorophenyl)-5-[(2-pyrrolidin-1-ylethyl)amino]-1,3-benzoxazole-4,7-dione], the melting point lay in the range of 182 to 183 °C. In addition, the IC50 in data set [1] was at most 10 µM. The IC50 in data set [2] is at most 10 µM.
Molecule `O=C1C=C(NCCN2CCCC2)C(=O)c2oc(Cc3c(F)cccc3Cl)nc21` [Example 58, 2-(2-chloro-6-fluorobenzyl)-6-[(2-pyrrolidin-1-ylethyl)amino]-1,3-benzoxazole-4,7-dione] had a melting point of 173 to 174 °C. Also, the IC50 in data set [1] is at most 10 µM. In addition, in data set [2], the IC50 was at most 10 µM.
Consider `CN(C)CCNC1=CC(=O)c2nc(Cc3c(F)cccc3Cl)oc2C1=O` [Example 43, 2-(2-chloro-6-fluorobenzyl)-6-{[2-(dimethylamino)ethyl]amino}-1,3-benzoxazole4,7-dione], for which the melting point fell in the range of 178 to 179 °C. Further, the IC50 in data set [1] is at most 10 µM. In data set [2], the IC50 was at most 10 µM.
For the molecule `O=C1C=C(NCCN2CCCC2)C(=O)c2oc(-c3ccccc3Br)nc21` [Example 45, 2-(2-bromophenyl)-6-[(2-pyrrolidin-1-ylethyl)amino]-1,3-benzoxazole-4,7-dione], the melting point lay within 123 to 124 °C. The IC50 in data set [1] was at most 10 µM. Also, in data set [2], the IC50 was at most 10 µM.
Molecule `CN(C)CCNC1=CC(=O)c2nc(-c3ccc(Br)cc3)oc2C1=O` [Example 31, 2-(4-bromophenyl)-6-{[2-(dimethylamino)ethyl]amino}-1,3-benzoxazole-4,7-dione] showed a melting point of 181 to 182 °C. Moreover, the IC50 in data set [1] was at most 10 µM. In data set [2], the IC50 was at most 10 µM.

Source of the values: patent publication US7335674B2, “Benzothiazole-4,7-diones and benzoxazole-4,7-diones with substituents in position 5 or 6 and method for production thereof” (Societe de Conseils de Recherches et d'Applications …, priority 2003, dated 2008).
